Test results published in PMC12226733, “Evolution of iGluR ligand specificity, polyamine regulation, and ion selectivity inferred from a placozoan epsilon receptor” (Communications Biology, 2025).
Values joined by “and” are separate entries in the source; they are usually repeats but may differ in a detail not shown here. Equal entries are not always repeated. Where two headings read alike, the source gives them in different places.

Experiments:
GluE1αA D646A [1] = assay type: cell-based, Trichoplax adhaerens; conditions: […]; for normalized conductance (G-V, Figure 5g), Avg: Na vs Na; for I-V current, Na vs Na, Avg of recordings: Figure 5b
GluE1αA D646A [2] = conditions: single recordings c1-c7, AVG c8
From the text: To further elucidate the nature of internal polyamine block in GluE1αA, we performed outside-out membrane patch clamp experiments in wildtype and mutant channels. […] Current-voltage (I-V) relationships were converted to conductance-voltage (G-V) plots and fit with a single permeant blocker model to estimate both the dissociation constant for Spm at 0 mV (Kd(0mV)) and the voltage dependency of block, as previously described[46],[47].
(§1) HEK-293T/17 cells (ATCC) were maintained in MEM supplemented with GlutaMAX and 10% fetal bovine serum (FBS) at 37 °C and 5% CO2. […] Transient transfections were carried out 48 h post-plating using the calcium phosphate precipitation method. After 6–8 hours, cells were washed twice with PBS and maintained in fresh medium. Cells transfected with mammalian GluA2 cDNA (plasmid vector described above) were returned to an incubator at 37 °C for 24–48 hours and cells transfected with Epsilon GluE1αA were incubated at 28 °C for 48–72 hours. In cells co-transfected with TARP-γ2, 30 μM NBQX was included in the medium to minimize AMPAR/auxiliary-induced cytotoxicity. All constructs were co-transfected with a plasmid encoding enhanced green fluorescent protein (eGFP) to identify transfected cells. Electrophysiology responses were recorded from outside-out patches excised from transfected cells. Recording pipettes were composed of borosilicate glass (3 to 6 megaohm, King Precision Glass) coated with dental wax to reduce electrical noise. All recordings were performed using Axopatch 200B amplifier (Molecular Devices, LLC). Current records were filtered at 5 or 10 kHz and sampled at 25–50 kHz. Series resistance (3 to 12 megaohms) was compensated by 95%. Recordings were performed at a range of holding potentials from −100 mV to 100 mV to study polyamine block. Data was acquired using pClamp9 software (Molecular Devices, LLC). All experiments were performed at room temperature. All chemicals were purchased from Sigma-Aldrich, unless otherwise indicated. External solution contained (in mM): 150 NaCl, 5 HEPES, 0.1 CaCl2, 0.1 MgCl, and […], pH 7.3–7.4. […] The osmotic pressure of all solutions was adjusted to 295 to 300 mOsm with sucrose. […] Stocks were thawed on the day of the experiment and used to prepared agonist-containing external solutions. Raw data for all electrophysiology experiments are provided in Supplementary Data 3. Current-voltage (I-V) relationships were fit using Origin 7 (OriginLab) using a ninth order polynomial function to estimate the reversal potential (Vrev).
Agonist-evoked membrane conductance (G) was calculated using the following equation: G=I/(V−Vrev) […]

GluA2 Q607S = molecular target: T1, GluA2 Q607S (Homo sapiens, UniProt P42262, Q607S); assay: outside-out patch clamp, block by intracellular spermine, HEK-293T/17 cells; assay type: biochemical;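 as to Normalized conductance (Gnorm): normalized to each receptor's own maximal conductance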
T1 construct: host or cells: HEK-293T/17
T1 sequence (P42262 25-883 Q607S): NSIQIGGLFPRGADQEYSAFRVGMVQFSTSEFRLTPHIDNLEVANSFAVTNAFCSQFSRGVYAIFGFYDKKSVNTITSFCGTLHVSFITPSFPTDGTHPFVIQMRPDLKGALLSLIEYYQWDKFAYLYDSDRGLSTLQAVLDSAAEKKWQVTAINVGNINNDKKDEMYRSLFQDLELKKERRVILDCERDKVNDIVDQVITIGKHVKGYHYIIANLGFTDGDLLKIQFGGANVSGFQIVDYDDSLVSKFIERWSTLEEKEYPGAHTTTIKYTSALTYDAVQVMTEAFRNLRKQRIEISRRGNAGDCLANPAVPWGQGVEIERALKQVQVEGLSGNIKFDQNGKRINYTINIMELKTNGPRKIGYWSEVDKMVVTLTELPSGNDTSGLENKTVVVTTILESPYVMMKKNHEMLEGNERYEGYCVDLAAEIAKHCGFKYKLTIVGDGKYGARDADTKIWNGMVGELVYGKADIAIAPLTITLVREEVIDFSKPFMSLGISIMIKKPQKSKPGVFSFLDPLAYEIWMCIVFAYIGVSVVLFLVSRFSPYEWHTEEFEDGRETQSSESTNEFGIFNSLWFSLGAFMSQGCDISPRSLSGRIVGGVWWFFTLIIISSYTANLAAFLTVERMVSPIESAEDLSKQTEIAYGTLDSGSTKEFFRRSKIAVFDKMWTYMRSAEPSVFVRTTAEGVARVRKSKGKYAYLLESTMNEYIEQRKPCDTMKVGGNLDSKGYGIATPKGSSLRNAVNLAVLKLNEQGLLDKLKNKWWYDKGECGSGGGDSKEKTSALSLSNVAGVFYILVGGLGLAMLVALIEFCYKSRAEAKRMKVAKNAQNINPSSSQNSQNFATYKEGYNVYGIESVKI
Procedure: (§2) Parallel experiments were carried out in human GluA2 homotetramers bearing equivalent Q/R/N and +4 site mutations to compare the regulation of voltage-dependent polyamine block within the broader context of mammalian receptors. Experimental design remained the same, except for using 10 mM glutamate as the agonist used to evoke membrane currents (Fig. 7a, d, g, and j). […] Their properties were accordingly compared to wildtype GluA2(Q) co-expressed with TARP-γ2.
as §1
(§3) Agonist-evoked membrane conductance (G) was calculated using the following equation: G=I/(V−Vrev)
(§4) Conductance-voltage (G-V) relationships were fit using Origin 7 (OriginLab) with the single permeant blocker model as done previously[46]: G=Gmax/1+[Spm]/Kd Where Gmax is the maximal conductance, [Spm] is the internal Spm concentration, and Kd is the dissociation constant.
(§5) Kd is defined as: Kd=koff+kperm/kon=sumofexitrates/bindingrate
(§6) And redefined as: Kd=g*exp(V/h)+L*exp(V/k) Where h and k are voltage dependencies of g and L, respectively, and at 0 mV: g=koff/konandL=kperm/kon

GluA2(Q) wt = molecular target: T2, GluA2(Q) wt (Homo sapiens, UniProt P42262); assay: as above; assay type: biochemical; conditions: for Normalized conductance (Gnorm) GluA2 wild type / Normalized current (Inorm) GluA2 wild type: single recordings and AVG;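 as to Normalized current (Inorm) GluA2 wild type: current normalized to the maximum current response at −100 mV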
T2 construct: host or cells: HEK-293T/17
T2 sequence (P42262 25-883): as the sequence (P42262 25-883 Q607S) above, with S583Q counted along it
Procedure: as §2, §1, §3, §4, §5, §6

[3] = GluA2 Q670S, 10 mV, single recordings and AVG
[4] = GluA2 Q670S, 20 mV, single recordings and AVG
[5] = GluA2 Q670S, 30 mV, single recordings and AVG
[6] = GluA2 Q670S, 40 mV, single recordings and AVG
[7] = GluA2 Q670S, 50 mV, single recordings and AVG
[8] = GluA2 Q670S, 60 mV, single recordings and AVG
[9] = GluA2 Q670S, 70 mV, single recordings and AVG
[10] = GluA2 Q670S, 80 mV, single recordings and AVG
[11] = GluA2 Q670S, 90 mV, single recordings and AVG
[12] = GluA2 Q670S, 100 mV, single recordings and AVG
[13] = GluA2 Q670S, -100 mV, single recordings and AVG

## [Na+] [Na]
GluE1αA D646A [1]; Vm 0.00
  normalized conductance (G-V, Figure 5g), Avg: 0.81
  I-V current, Na vs Na, Avg of recordings: -0.000461
GluE1αA D646A [1]; Vm 20.00
  normalized conductance (G-V, Figure 5g), Avg: 0.80
  I-V current, Na vs Na, Avg of recordings: 0.18
GluE1αA D646A [1]; Vm 40.00
  normalized conductance (G-V, Figure 5g), Avg: 0.77
  I-V current, Na vs Na, Avg of recordings: 0.36
GluE1αA D646A [1]; Vm 60.00
  normalized conductance (G-V, Figure 5g), Avg: 0.74
  I-V current, Na vs Na, Avg of recordings: 0.53
GluE1αA D646A [1]; Vm 80.00
  normalized conductance (G-V, Figure 5g), Avg: 0.78
  I-V current, Na vs Na, Avg of recordings: 0.69
GluE1αA D646A [1]; Vm -20.00
  normalized conductance (G-V, Figure 5g), Avg: 0.83
  I-V current, Na vs Na, Avg of recordings: -0.18
GluE1αA D646A [1]; Vm -40.00
  normalized conductance (G-V, Figure 5g), Avg: 0.84
  I-V current, Na vs Na, Avg of recordings: -0.37
GluE1αA D646A [1]; Vm -60.00
  normalized conductance (G-V, Figure 5g), Avg: 0.88
  I-V current, Na vs Na, Avg of recordings: -0.56
GluE1αA D646A [1]; Vm -80.00
  normalized conductance (G-V, Figure 5g), Avg: 1.00
  I-V current, Na vs Na, Avg of recordings: -0.76

## NCCCNCCCCNCCCN [spermine]
GluE1αA D646A [2]; 20 mV
  Normalized current (Inorm): 0.12 and 0.10 and 0.11
GluE1αA D646A [2]; 30 mV
  Normalized current (Inorm): 0.18 and 0.16 and 0.19
GluE1αA D646A [2]; -100 mV
  Normalized conductance (Gnorm): 1.00
  Normalized current (Inorm): -1.00
GluA2 Q607S
  Normalized current (Inorm): -0.0262
GluA2 Q607S; GluA2 Q607S
  h, voltage dependency of block onset: −14.0 ± 2.3 mV
  k, voltage dependency of block relief: 164.4 ± 31.1 mV
GluA2 Q607S; GluA2 Q607S, 30 µM internal Spm, 10 mM glutamate, read-out: Kd(0mV)
  Kd: 36.2 ± 6.7 µM
GluA2 Q607S; GluA2 Q670S, 0 mV, single recording
  Normalized conductance (Gnorm): 0.58
GluA2 Q607S; [3]
  Normalized conductance (Gnorm): 0.61 and 0.49 and 0.58 and 0.59 and 0.57
  Normalized current (Inorm): 0.0362 and 0.03 and 0.04 and 0.0351 and 0.0359
GluA2 Q607S; [4]
  Normalized conductance (Gnorm): 0.63 and 0.50 and 0.57 and 0.64 and 0.59
  Normalized current (Inorm): 0.095 and 0.09 and 0.10 and 0.11
GluA2 Q607S; [5]
  Normalized conductance (Gnorm): 0.65 and 0.52 and 0.57 and 0.61 and 0.59
  Normalized current (Inorm): 0.16 and 0.15 and 0.17
GluA2 Q607S; [6]
  Normalized conductance (Gnorm): 0.67 and 0.55 and 0.57 and 0.65 and 0.61
  Normalized current (Inorm): 0.23 and 0.22 and 0.25
GluA2 Q607S; [7]
  Normalized conductance (Gnorm): 0.68 and 0.55 and 0.59 and 0.63
  Normalized current (Inorm): 0.29 and 0.28 and 0.33 and 0.30
GluA2 Q607S; [8]
  Normalized conductance (Gnorm): 0.74 and 0.61 and 0.65 and 0.67
  Normalized current (Inorm): 0.39 and 0.36 and 0.38
GluA2 Q607S; [9]
  Normalized conductance (Gnorm): 0.69 and 0.61 and 0.66
  Normalized current (Inorm): 0.43 and 0.41 and 0.48 and 0.44
GluA2 Q607S; [10]
  Normalized conductance (Gnorm): 0.72 and 0.65 and 0.71 and 0.69
  Normalized current (Inorm): 0.51 and 0.57 and 0.53
GluA2 Q607S; [11]
  Normalized conductance (Gnorm): 0.70 and 0.62 and 0.71 and 0.68
  Normalized current (Inorm): 0.56 and 0.55 and 0.64 and 0.59
GluA2 Q607S; [12]
  Normalized conductance (Gnorm): 0.72 and 0.65 and 0.76 and 0.71
  Normalized current (Inorm): 0.65 and 0.77 and 0.69
GluA2 Q607S; GluA2 Q670S, -10 mV, single recordings and AVG
  Normalized conductance (Gnorm): 0.58 and 0.48 and 0.57 and 0.51 and 0.53
GluA2 Q607S; GluA2 Q670S, -20 mV, single recordings and AVG
  Normalized conductance (Gnorm): 0.55 and 0.46 and 0.51 and 0.49 and 0.50
GluA2 Q607S; GluA2 Q670S, -30 mV, single recordings and AVG
  Normalized conductance (Gnorm): 0.54 and 0.46 and 0.52 and 0.50
GluA2 Q607S; GluA2 Q670S, -40 mV, single recordings and AVG
  Normalized conductance (Gnorm): 0.55 and 0.48 and 0.52 and 0.45 and 0.50
GluA2 Q607S; GluA2 Q670S, -50 mV, single recordings and AVG
  Normalized conductance (Gnorm): 0.57 and 0.50 and 0.52 and 0.49
GluA2 Q607S; GluA2 Q670S, -60 mV, single recordings and AVG
  Normalized conductance (Gnorm): 0.64 and 0.55 and 0.54 and 0.56 and 0.57
GluA2 Q607S; GluA2 Q670S, -70 mV, single recordings and AVG
  Normalized conductance (Gnorm): 0.72 and 0.61 and 0.64
GluA2 Q607S; GluA2 Q670S, -80 mV, single recordings and AVG
  Normalized conductance (Gnorm): 0.81 and 0.68 and 0.75 and 0.67 and 0.73
GluA2 Q607S; GluA2 Q670S, -90 mV, single recordings and AVG
  Normalized conductance (Gnorm): 0.92 and 0.76 and 0.83 and 0.81
GluA2 Q607S; [13]
  Normalized conductance (Gnorm): 0.86 and 0.95 and 0.90
  Normalized current (Inorm): -1.00
GluA2(Q) wt; 10 mV
  Normalized conductance (Gnorm) GluA2 wild type: 0.13 and 0.07 and 0.09 and 0.12 and 0.14 and 0.11
GluA2(Q) wt; 30 mV
  Normalized current (Inorm) GluA2 wild type: 0.0172
GluA2(Q) wt; 70 mV
  Normalized current (Inorm) GluA2 wild type: 0.19 and 0.25 and 0.20 and 0.28 and 0.32 and 0.36 and 0.27
GluA2(Q) wt; 80 mV
  Normalized conductance (Gnorm) GluA2 wild type: 0.39 and 0.55 and 0.61 and 0.72 and 0.70 and 0.59
  Normalized current (Inorm) GluA2 wild type: 0.31 and 0.42 and 0.39 and 0.43 and 0.54 and 0.52 and 0.44
GluA2(Q) wt; 90 mV
  Normalized conductance (Gnorm) GluA2 wild type: 0.49 and 0.69 and 0.70 and 0.77 and 0.89 and 0.81 and 0.72
  Normalized current (Inorm) GluA2 wild type: 0.44 and 0.59 and 0.56 and 0.62 and 0.76 and 0.68 and 0.61
GluA2(Q) wt; 100 mV
  Normalized conductance (Gnorm) GluA2 wild type: 0.66 and 0.80 and 0.82 and 0.89 and 0.94
  Normalized current (Inorm) GluA2 wild type: 0.66 and 0.77 and 0.74 and 0.80 and 0.89
GluA2(Q) wt; -10 mV
  Normalized current (Inorm) GluA2 wild type: -0.0326
GluA2(Q) wt; -20 mV
  Normalized current (Inorm) GluA2 wild type: -0.0532
GluA2(Q) wt; -40 mV
  Normalized conductance (Gnorm) GluA2 wild type: 0.53 and 0.50 and 0.49 and 0.66 and 0.63 and 0.73 and 0.59
GluA2(Q) wt; -50 mV
  Normalized conductance (Gnorm) GluA2 wild type: 0.65 and 0.63 and 0.62 and 0.80 and 0.70 and 0.82
GluA2(Q) wt; -60 mV
  Normalized conductance (Gnorm) GluA2 wild type: 0.75 and 0.73 and 0.72 and 0.89 and 0.80 and 0.79
GluA2(Q) wt; -70 mV
  Normalized conductance (Gnorm) GluA2 wild type: 0.83 and 0.76 and 0.82 and 0.93 and 0.85 and 0.92
GluA2(Q) wt; -80 mV
  Normalized conductance (Gnorm) GluA2 wild type: 0.88 and 0.91 and 0.95 and 0.89
GluA2(Q) wt; -90 mV
  Normalized conductance (Gnorm) GluA2 wild type: 0.90 and 0.93 and 0.98 and 0.99 and 0.95
GluA2(Q) wt; -100 mV
  Normalized conductance (Gnorm) GluA2 wild type: 0.96 and 0.99 and 0.97 and 1.03 and 1.00
  Normalized current (Inorm) GluA2 wild type: -1.00
GluA2(Q) wt; GluA2(Q) wt
  h, voltage dependency of block onset: −18.5 ± 0.7 mV
  k, voltage dependency of block relief: 14.3 ± 0.6 mV
GluA2(Q) wt; GluA2(Q) wt, 30 µM internal Spm, 10 mM glutamate, read-out: Kd(0mV)
  Kd: 5.4 ± 2.6 µM
GluA2(Q) wt; fit of Gnorm vs voltage, GluA2 wild type, single recordings
  k: 16.05 and 14.65 and 13.61 and 14.56 and 11.91 and 14.81
